The record followed here is patent US20230235289A1, “METHOD FOR FIBROBLAST REJUVENATION BY MECHANICAL REPROGRAMMING AND REDIFFERENTIATION” (Paul Scherrer Institut, priority 2020, published 2023).

The subject of experiment [1] is FC (3T3 clumps). Kind of experiment: H3K9ac immunofluorescence. The format is cell-based, mouse. To be noted: TSA-treated FC compared to untreated FC. The method, then: (§1) Cells embedded in Collagen-I gel were fixed with 4% Paraformaldehyde (Sigma) in PBS buffer (pH 7.4) for 25 min, followed by washing with PBS+100 mM glycine buffer (5 min×3). Cells were permeabilized using 0.5% Triton (Sigma-Aldrich) in PBS for 20 min, followed by washing with PBS-glycine buffer (5 min×3). After that, cells were blocked with 10% goat serum (ThermoFisher Scientific) in IF wash buffer (PBS+0.2% Triton+0.2% tween 20) for 3 h at room temperature. Next, cells were incubated overnight with different primary antibodies diluted in blocking buffer, followed by washing with IF wash buffer (15 min×3). […] Cell nuclei were stained with NucBlue Live Ready Probes (Molecular Probes; Thermo Fisher Scientific) in PBS for 10 min at room temperature, and filamentous actin was labeled using phalloidin Alexa Fluor 488 or 568 (1:100; Molecular Probes; Thermo Fisher Scientific) for 45 min.
(§2) Fluorescent images of 3D spheroids and cells embedded in 3D Collagen-I gel were acquired by using Nikon AIR laser scanning confocal microscope (Nikon Instruments Inc, Japan), at either 20× magnification (Plan Apo 20× ELWD, NA 0.8) or 63× magnification (1.25 NA oil objective) with identical acquisition settings. […] The sprouting length of each spheroid embedded in 3D collagen matrix was measured from the large field fluorescent micrograph of actin using AngioTools software.

The test system of experiment [2] is FC (3T3 clumps). Briefly: Nuclear dynamics by time-lapse confocal microscopy of Hoechst 33342 stained nuclei. The class given is cell-based, mouse. The conditions noted are these: TSA-treated FC compared to control FC. Here is the method:
Nuclear dynamics were analyzed from the decorrelation of the nuclear images in time as described previously(37). Time-lapse live-imaging of nucleus stained with Hoechst 33342 (ThermoFisher Scientific) was done in confocal mode with time intervals of one minute for up to 32 minutes in PR, FC and FC+TSA conditions. One Pearson correlation coefficient (PCC) value was calculated from two lists of pixel intensity of the same nucleus captured in different time points with a certain time lag. For each cell, one PCC curve was drawn which connecting all PCCs (as y) with the increasing time lags (as x) as represented in dim color in FIG. 5A. The mean PCC curves for all cells in each condition, were drawn in bright color in FIG. 5A. The mean PCC curves in each condition were fitted by equation y=(1−α)+α exp(−t/τ)−η, where y refers to PCC value, t is time lags, fitting parameter α is drop rate, τ is time constant, η is noise.

Experiment [3] relates to FC embedded in 3D collagen matrix (FCG). Kind of experiment: pMLC immunofluorescence of sprouted cells in 3D collagen matrix. The format is cell-based, mouse. Here is the method: as §1, §2
For experiment [4], the system named is RF embedded in fibrillary collagen matrix. Briefly: Collagen fibre remodeling/stiffening by matrix-embedded fibroblasts (immunostained collagen). The conditions noted are these: for collagen fiber stiffening: addition to spheroids sprouting in collagen matrix. The format is cell-based, mouse. An excerpt:
In order to characterize these RF in vitro, one compared the gel contraction abilities of cells derived from PR spheroids or from FC, both of which were equally embedded in the 3D collagen matrix. […] Fibroblasts are known to exert mechanical forces on the extracellular matrix surrounding them. […] Both RF and FCG embedded in fibrillary collagen matrix were able to remodel collagen fibrils into thicker bundles (FIG. 3F).
Cells embedded in Collagen-I gel were fixed with 4% Paraformaldehyde (Sigma) in PBS buffer (pH 7.4) for 25 min, followed by washing with PBS+100 mM glycine buffer (5 min×3). Cells were permeabilized using 0.5% Triton (Sigma-Aldrich) in PBS for 20 min, followed by washing with PBS-glycine buffer (5 min×3). After that, cells were blocked with 10% goat serum (ThermoFisher Scientific) in IF wash buffer (PBS+0.2% Triton+0.2% tween 20) for 3 h at room temperature. Next, cells were incubated overnight with different primary antibodies diluted in blocking buffer, followed by washing with IF wash buffer (15 min×3). Cells were then incubated with corresponding fluorescent-labeled secondary antibodies diluted in 5% goat serum in IF wash buffer for 3 h at room temperature. Cell nuclei were stained with NucBlue Live Ready Probes (Molecular Probes; Thermo Fisher Scientific) in PBS for 10 min at room temperature, and filamentous actin was labeled using phalloidin Alexa Fluor 488 or 568 (1:100; Molecular Probes; Thermo Fisher Scientific) for 45 min.
Fluorescent images of 3D spheroids and cells embedded in 3D Collagen-I gel were acquired by using Nikon AIR laser scanning confocal microscope (Nikon Instruments Inc, Japan), at either 20× magnification (Plan Apo 20× ELWD, NA 0.8) or 63× magnification (1.25 NA oil objective) with identical acquisition settings. In the Z dimension, each spheroid and 3D Collagen-I gel was scanned up to a depth of 50 μm, with a step size of 1 to 5 μm. Confocal images of either 512×512 or 1024×1024 pixels were obtained with an XY optical resolution of 0.42 μm or 0.21 μm, respectively. Time lapse imaging was done in confocal mode for up to 60 min and 18 h with 60 s and 30 m time intervals, respectively. Bright-field images were acquired using the EVOS FL Cell Imaging System (Thermo Fisher Scientific). For gel contraction assay, images of collagen gel at different days of cell growth were acquired with a mobile camera at a fixed magnification. The fluorescence intensity was measured for each protein in its respective channel and the number of gH2Ax foci per nucleus was determined using custom-written code in Fiji (NI) MATLAB (Mathworks) and IMARIS8. The sprouting length of each spheroid embedded in 3D collagen matrix was measured from the large field fluorescent micrograph of actin using AngioTools software.

The test system of experiment [5] is 6 day-old spheroids of NIH3T3 mouse embryonic fibroblasts. Kind of experiment: Cell sprouting from partially reprogrammed spheroids in 3D collagen matrix (AngioTools). The format is cell-based. The conditions noted are these: addition to spheroids sprouting in collagen matrix.
Text: These 6 day-old spheroids were embedded in collagen gels and cultured for at least 2 days (FIG. 1A). Within few hours, cells originating from the spheroids progressively invaded the collagen matrix and migrated either individually as unicellular sprouts (single cells) or collectively as complex capillary-like structures (FIG. 1B). In addition to cell invasion, morphological modifications in the spheroid core itself were detected. While the spheroids initially appeared as a compact structure, subsequent cell migration induced spheroid expansion occurred and led to breaches in the spheroid core. […]
as §2, with “The fluorescence intensity was measured for each protein in its respective channel and the number of gH2Ax foci per nucleus was determined using custom-written code in Fiji (NI) MATLAB (Mathworks) and IMARIS8. The” for “The”

Take `CC(/C=C/C(=O)NO)=C\[C@@H](C)C(=O)c1ccc(N(C)C)cc1` [TSA, Trichostatin A]: in the experiment on FC (3T3 clumps) [1], the H3K9ac levels entry was “significant increase”. Also, the nuclear dynamics entry in the experiment on FC (3T3 clumps) [2] is “increase in nuclear dynamics”. The “level of pMLC” value in experiment [3] (TSA-treated FCG compared to untreated FCG and RF) was “higher level”. Further, the “contractility upon exposure to ECM-related cues” value in experiment [3] (fibroblasts treated with the HDAC inhibitor) was “increased contractility”.
For `C[C@@H](N)[C@H]1CC[C@H](C(=O)Nc2ccncc2)CC1` [Y-27632], in experiment [4] (25 μM), the “remodeling of collagen fibrils around RF” value is on record as “very less or no remodeling”.
`Cc1ccc2c(c1)C(=O)C1(O)CCN(c3ccccc3)C1=N2` (stereo not shown) [blebbistatin]: in experiment [4], the collagen fiber stiffening result is listed as “drop”. Also, the average sprouting length entry in experiment [5] is reported as “significant reduction”.
Take `C=C1[C@@H](C)[C@H]2[C@H](Cc3ccccc3)NC(=O)[C@]23[C@H](OC(C)=O)/C=C/[C@@](C)(O)C(=O)[C@@H](C)C/C=C/[C@H]3[C@@H]1O` [cytoD, cytochalasin D]: the “remodeling of collagen fibrils around RF” value in experiment [4] (4 μM) was “very less or no remodeling”. Moreover, in experiment [4], the collagen fiber stiffening result is on record as “drop”. Moreover, in experiment [5], the average sprouting length entry is “significant reduction”.
